Source: patent publication US20060241182A1, “Antibiotic, functional cosmetic and functional food containing levulinic acid and their derivatives” (priority 2001, published 2006)
In brackets after ≈: the same amount, converted by molar mass. Where two headings read alike, the source gives them in different places.

Key:
[1] = system: drug-resistant bacteria; settings: summary of Table 1
Experimental: (§1) Staphylococcus aureus KCTC 1621, Pseudomonas aeroginosa KCTC 1636, methicillin-resistant Staphylococcus aureus, Vancomycin resistant Enterococcus and R-Pseudomonas aeroginosa were cultured in tryptic soy broth at 37° C. with shaking.
(§2) Lactococcus garvieae YT-3, Edwardsiella tarda GY-01, Vibrio anguillarum YT-85805, Enterococcus faecium KCTC 3095 and tooth-decaying bacteria of Streptococcus spp. were cultured in Brain heart infusion media at 37° C. with shaking. Anaerobic tooth-decaying bacteria, Streptococcus spp., were cultured with standing in gas generating kit. Anaerobic Propionibacterium acnes KCTC 3326, was cultured in GAM media with standing in gas generating kit.
(§3) Wherein, all the bacteria were cultured for 12˜18 hours.
(§4) MIC of levulinic acid was measured on 96 well plates. Media and levulinic acid (200 mg/ml) mixed and diluted 1:2 fold serially. Dilutants were added on 96 well plate. Equal amount of bacterial suspension (10^6 CFU/ml) was added in each well. Wherein the inoculated bacteria were cultured at 30° C. for 12˜18 hours. The proliferations of bacteria on testing medium were measured to determine MIC against the test bacteria.

[2] = system: Escherichia coli KCTC 1039; assay: microbe, parasite or virus in culture; settings: KCTC1039
Experimental: (§5) Also, Bacillus cereus KCTC 1014, Bacillus subtillis IFO 3007, Escherichia coli O 157 and Escherichia coli 1039 were cultured in complex media (0.8% of nutrient broth, 1% of yeast extract, 2% of NaCl and 0.02% of dextrose) at 37° C. with shaking.
as §3, §4

[3] = system: Bacillus cereus KCTC 1014; assay: microbe, parasite or virus in culture; settings: KCTC1014
Experimental: as §5, §3, §4

[4] = system: Bacillus subtilis IF0 3007; assay: microbe, parasite or virus in culture; settings: IF03007
Experimental: as §5, §3, §4

[5] = system: Saccharomyces cerevisiae breneri heferasse VII; assay: microbe, parasite or virus in culture
Experimental: (§6) Saccharomyces cerevisiae breneri hefe rasse VIII and Hansenula anomala IFO 0149 were cultured in complex medium (0.3% of yeast extract, 0.3% of nutrient broth, 0.5% of peptone and 0.1% of glucose) at 25° C. with shaking.
as §3, §4

[6] = system: Hansenula anomala IFO 0149; assay: microbe, parasite or virus in culture; settings: IFO0149
Experimental: as §6, §3, §4

[7] = system: tooth-decaying bacteria; settings: summary of Table 3
Experimental: as §2, §3, §4
(§7) Also, in case of anaerobic bacteria, according to the same method as above, cap tubes were used in place of 96 well plates.

[8] = system: Escherichia coli O157; assay: MIC of levulinic acid, serial dilution on 96 well plates; format: cell-based
Experimental: as §5, §3, §4

[9] = system: pathogen infecting finny tribe and poultry; settings: summary of Table 2
Experimental: as §2, §3, §4

[10] = system: Edwardsiella tarda GY-01; assay: microbe, parasite or virus in culture; settings: GY01
Experimental: as §2, §3, §4

[11] = system: Vibrio anguillarum YT-85805; assay: microbe, parasite or virus in culture; settings: YT85805
Experimental: as §2, §3, §4

[12] = system: Lactococcus garvieae YT-3; assay: microbe, parasite or virus in culture; settings: YT3
Experimental: as §2, §3, §4

[13] = system: Enterococcus faecium KCTC 3095; assay: microbe, parasite or virus in culture; settings: KCTC3095
Experimental: as §2, §3, §4

[14] = system: Candida albicans KCTC 7753; assay: microbe, parasite or virus in culture; settings: KCTC7753
Experimental: as §3, §4

[15] = system: Salmonella typhimurium KCTC 1925; assay: microbe, parasite or virus in culture; settings: Salmonella enterica
Experimental: as §3, §4

[16] = system: general bacteria and yeast; settings: summary of Table 4
Experimental: as §5, §6, §3, §4

[17] = system: Helicobacter pylori; assay: microbe, parasite or virus in culture
Experimental: as §3, §4, §7

[18] = system: Streptococcus mutans Ingbritt; assay: microbe, parasite or virus in culture
Experimental: as §2, §3, §4, §7

[19] = system: Streptococcus mutans BHT; assay: microbe, parasite or virus in culture
Experimental: as §2, §3, §4, §7

[20] = system: Propionibacterium acnes KCTC 3326; assay: microbe, parasite or virus in culture; settings: Cutibacterium acnes, KCTC3326
Experimental: as §2, §3, §4, §7

[21] = system: Streptococcus mutans GS-5; assay: microbe, parasite or virus in culture; settings: GS5
Experimental: as §2, §3, §4, §7

[22] = system: Streptococcus mutans OMZ-176; assay: microbe, parasite or virus in culture; settings: OMZ176
Experimental: as §2, §3, §4, §7

[23] = system: Streptococcus mutans LM-7; assay: microbe, parasite or virus in culture; settings: LM7
Experimental: as §2, §3, §4, §7

[24] = system: Streptococcus doweni Mfe28; assay: microbe, parasite or virus in culture
Experimental: as §2, §3, §4, §7

[25] = system: Streptococcus sobrinus coykendall 6715-1 ATCC 27352; assay: microbe, parasite or virus in culture; settings: ATCC27352
Experimental: as §2, §3, §4, §7

[26] = system: Streptococcus mutans KCTC 3065; assay: microbe, parasite or virus in culture; settings: KCTC3065
Experimental: as §2, §3, §4, §7

[27] = system: Streptococcus mutans OMZ-175; assay: microbe, parasite or virus in culture; settings: OMZ175
Experimental: as §2, §3, §4, §7

[28] = system: Streptococcus salivarius ATCC 13419; assay: microbe, parasite or virus in culture; settings: ATCC13419
Experimental: as §2, §3, §4, §7

[29] = system: Streptococcus mutans HS-6; assay: microbe, parasite or virus in culture; settings: HS6
Experimental: as §2, §3, §4, §7

[30] = system: mouse fibroblast NIH3T3 cells; settings: 52 hours
Experimental: Cytotoxicity test of levulinic acid was accomplished by using mouse fibroblast NIH3T3 cells as testing cells. The cells were cultured in medium added 16.3 mg/ml, 12.2 mg/ml, 9.8 mg/ml and 4.9 mg/ml of levulinic acid for 52 hours, respectively.

[31] = system: Resistant Pseudomonas aeruginosa; assay: microbe, parasite or virus in culture
Experimental: as §1, §3, §4

[32] = system: Staphylococcus aureus KCTC 1621; assay: microbe, parasite or virus in culture; settings: KCTC1621
Experimental: as §1, §3, §4

[33] = system: methicillin-resistant Staphylococcus aureus; assay: microbe, parasite or virus in culture
Experimental: as §1, §3, §4

[34] = system: Pseudomonas aeruginosa KCTC 1636; assay: microbe, parasite or virus in culture; settings: KCTC1636
Experimental: as §1, §3, §4

[35] = system: vancomycin-resistant Enterococcus; assay: microbe, parasite or virus in culture
Experimental: as §1, §3, §4

**Q.** Which results are given for CC(=O)CCC(=O)O [levulinic acid]?
**A.** MIC against drug-resistant bacteria (range over Table 1) [1]: 1.5˜4.5 mg/ml; MIC [2]: 2000 µg/mL (≈ 17.2 mM); MIC [3]: 1500 µg/mL (≈ 12.9 mM); MIC [4]: 1500 µg/mL (≈ 12.9 mM); MIC [5]: 2500 µg/mL (≈ 21.5 mM); MIC [6]: 3500 µg/mL (≈ 30.1 mM); MIC against tooth-decaying bacteria (range over Table 3) [7]: 4˜5 mg/ml; MIC [8]: 2000 µg/mL; MIC against pathogen infecting finny tribe and poultry (range over Table 2) [9]: 0.37˜3.5 mg/ml; MIC [10]: 3500 µg/mL (≈ 30.1 mM); MIC [11]: 3000 µg/mL (≈ 25.8 mM); MIC [12]: 3500 µg/mL (≈ 30.1 mM); MIC [13]: 4500 µg/mL (≈ 38.8 mM); MIC [14]: 6000 µg/mL (≈ 51.7 mM); MIC [15]: 370 µg/mL (≈ 3.19 mM); MIC against general bacteria and yeast (range over Table 4) [16]: 1.5˜6 mg/ml; MIC [17]: 0.78 µg/mL (≈ 0.00672 mM); MIC [18]: 4000 µg/mL (≈ 34.4 mM); MIC [19]: 4000 µg/mL (≈ 34.4 mM); MIC [20]: 6000 µg/mL (≈ 51.7 mM); MIC [21]: 5000 µg/mL (≈ 43.1 mM); MIC [22]: 5000 µg/mL (≈ 43.1 mM); MIC [23]: 4000 µg/mL (≈ 34.4 mM); MIC [24]: 4000 µg/mL (≈ 34.4 mM); MIC [25]: 4000 µg/mL (≈ 34.4 mM); MIC [26]: 4000 µg/mL (≈ 34.4 mM); MIC [27]: 4000 µg/mL (≈ 34.4 mM); MIC [28]: 4000 µg/mL (≈ 34.4 mM); MIC [29]: 4000 µg/mL (≈ 34.4 mM); Cytotoxicity: death / growth of the cells ([30]; medium added 9.8 mg/ml levulinic acid): not died, but their growth were inhibited; Cytotoxicity: growth of the cells versus control cells ([30]; medium containing 4.9 mg/ml levulinic acid): no difference from one of control cells; Cytotoxicity: death / growth of the cells ([30]; medium containing 12.2 mg/ml levulinic acid): died, or their growth were inhibited; Cytotoxicity: death / growth of the cells ([30]; medium containing 16.3 mg/ml levulinic acid): died, or their growth were inhibited; MIC [31]: 2500 µg/mL (≈ 21.5 mM); MIC [32]: 3500 µg/mL (≈ 30.1 mM); MIC [33]: 4000 µg/mL (≈ 34.4 mM); MIC [34]: 1500 µg/mL (≈ 12.9 mM); MIC [35]: 3000 µg/mL (≈ 25.8 mM)
